# Test results as given in ChEMBL document CHEMBL3244211, “5-Carboxamido-4-amino-3-isoxazolidone, and asparagine analogue” (J Med Chem, 1978).
# Active and inactive are the calls of the source. The calls are words filed in the database; no cut-off is given here.
# How the values were obtained:
# L1210 = assay: Antitumor activity against mouse L1210 cells allografted in BDF1 mouse assessed as increase of host survival time at 100 mg/kg, ip; format: functional
# Mus musculus = assay: Toxicity in mouse P388 cells allografted BDF1 mouse assessed as mortality at 200 mg/kg, ip qd for 9 days; format: organism-based; set-up: dose 200 mg/kg, route intraperitoneal; settings: in vivo, 216 h
# [1] = target: T1, Asparagine synthetase [glutamine-hydrolyzing] (Rattus norvegicus) (UniProt P49088); assay: Inhibition of asparagine synthetase in rat Novikoff hepatoma
# T1 sequence (whole entry): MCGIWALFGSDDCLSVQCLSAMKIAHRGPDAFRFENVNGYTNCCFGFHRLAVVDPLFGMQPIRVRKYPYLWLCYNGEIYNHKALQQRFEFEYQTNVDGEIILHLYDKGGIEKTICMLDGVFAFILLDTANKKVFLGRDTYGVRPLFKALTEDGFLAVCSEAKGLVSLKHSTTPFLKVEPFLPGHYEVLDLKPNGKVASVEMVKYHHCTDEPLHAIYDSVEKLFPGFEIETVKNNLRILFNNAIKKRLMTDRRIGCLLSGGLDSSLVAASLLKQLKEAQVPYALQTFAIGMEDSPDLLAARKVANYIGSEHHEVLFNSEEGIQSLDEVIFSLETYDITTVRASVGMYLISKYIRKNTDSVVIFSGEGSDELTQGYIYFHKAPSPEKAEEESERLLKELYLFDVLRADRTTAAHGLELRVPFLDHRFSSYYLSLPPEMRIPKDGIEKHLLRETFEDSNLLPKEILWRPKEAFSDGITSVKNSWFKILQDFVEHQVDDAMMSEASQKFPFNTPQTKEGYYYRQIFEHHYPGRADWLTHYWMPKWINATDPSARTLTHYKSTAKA
# P388 = assay: Antitumor activity against mouse P388 cells allografted in BDF1 mouse assessed as increase of host survival time at 200 mg/kg, ip qd for 9 days; format: functional
SMILES,Activity (L1210),Activity (Mus musculus),inhibition [1],Activity (P388),Activity (L1210; route intraperitoneal) [%],T/C (P388; route intraperitoneal) [%]
NC(=O)[C@H]1ONC(=O)[C@@H]1N (relative stereo),inactive,Non-toxic,inactive,inactive,–,–
O=C(NO)[C@H]1N[C@@H]1C(=O)NO (relative stereo),–,Non-toxic,–,–,13,128
